Reference: patent publication US20170333391A1, “METHOD FOR DELAYING THE ONSET OF PULMONARY FIBROSIS OR TREATING PULMONARY FIBROSIS” (EVERFRONT BIOTECH INC., priority 2016, published 2017)

Columns and labels:
type I collagen = test: Type I collagen expression in TGF-β1-induced NHLF, western blotting (2-1); assay type: cell-based, human; conditions: uninduced group = 1, TGF-β1-only group = 3.61
Protocol: Normal Human lung fibroblasts (NHLF) were seeded into 6 cm culture dishes at a density of 2×10^5 cells/dish, comprising a control group and three experimental groups (4 dishes in total). The cells were cultured until the next day, and then the mediums were removed. Each group was respectively treated under the following conditions to conduct follow-up experiments: • (1) Positive control group: cells were cultured in a FGM-2 medium containing 1% serum for 36 hours; • (2) Negative control group: cells were cultured in a FGM-2 medium containing 1% serum and TGF-β1 (5 ng/ml) for 36 hours; • (3) Low-dose group: cells were firstly cultured in a FGM-2 medium containing 1% serum and TGF-β1 (5 ng/ml) for 12 hours, and then compound (1) was added into the medium to provide a final concentration of 15 μg/ml; thereafter, the cells were cultured for another 24 hours; and • (4) High-dose group: cells were firstly cultured in a FGM-2 medium containing 1% serum and TGF-β1 (5 ng/ml) for 12 hours, and then compound (1) was added into the medium to provide a final concentration of 25 μg/ml; thereafter, the cells were cultured for another 24 hours.
Thereafter, the proteins in the cells of each group were extracted, and the expressions of type I collagen in the NHLF cells of each group were measured with western blotting, wherein the β-actin served as the internal control. […]

p-smad2/3 protein = p-smad2/3 protein expression in TGF-β1-induced NHLF, western blotting (Example 4); assay type: cell-based, human; conditions: uninduced control = 1, TGF-β1-only group A = 1.42
Protocol: Normal Human lung fibroblasts (NHLF) were seeded into 6 cm culture dishes at a density of 2×10^5 cells/dish, comprising a control group and five experimental groups (6 dishes in total). The cells were cultured until the next day, and then the mediums were removed. Each group was respectively treated under the following conditions to conduct follow-up experiments: • (1) Control group: cells were cultured in a FGM-2 medium containing 1% serum for 36 hours; • (2) Group A: cells were cultured in a FGM-2 medium containing 1% serum and TGF-β1 (5 ng/ml) for 36 hours; • (3) Group B: cells were firstly cultured in a FGM-2 medium containing 1% serum and TGF-β1 (5 ng/ml) for 12 hours, and then compound (1) was added into the medium to provide a final concentration of 15 μg/ml; thereafter, the cells were cultured for another 24 hours; • (4) Group C: cells were firstly cultured in a FGM-2 medium containing 1% serum and TGF-β1 (5 ng/ml) for 12 hours, and then compound (1) was added into the medium to provide a final concentration of 30 μg/ml; thereafter, the cells were cultured for another 24 hours; • (5) Group D: cells were firstly cultured in a FGM-2 medium containing 1% serum and TGF-β1 (5 ng/ml) for 12 hours, and then compound (2) was added into the medium to provide a final concentration of 100 μg/ml; thereafter, the cells were cultured for another 24 hours; and • (6) Group E: cells were firstly cultured in a FGM-2 medium containing 1% serum and TGF-β1 (5 ng/ml) for 12 hours, and then compound (2) was added into the medium to provide a final concentration of 200 μg/ml; thereafter, the cells were cultured for another 24 hours.
Thereafter, the proteins in the cells of each group were extracted, and the expressions of BMP-7 protein, TGF-β protein and p-smad2/3 protein in the NHLF cells of each group were measured with western blotting. The results of the control group served as the basis for calculating the relative expression levels of the other groups.

smad3 protein = smad3 protein in mouse pulmonary tissue, western blotting; assay type: in vivo, mice; conditions: compared to oil group
Protocol: 24 C57B/L6 mice (age: four weeks) were separated into four groups (6 mice in each group). […]
The samples of mice pulmonary tissue provided by Example 7 and preserved at −20° C. were removed from storage, and then ground in liquid nitrogen. […] The expressions of TGF-β protein, smad3 protein and surfactant C in the samples of each group were measured with western blotting, wherein the actin served as an internal control.

CCCC=C1OC(=O)c2ccccc21 [compound (1)]
Relative expression level of the type I collagen (fold) (type I collagen; High-dose group: TGF-β1 5 ng/ml 12 h, then compound (1) 25 μg/ml 24 h): 1.83 fold | Relative expression level of the type I collagen (fold) (type I collagen; Low-dose group: TGF-β1 5 ng/ml 12 h, then compound (1) 15 μg/ml 24 h): 3.56 fold | Relative expression level (fold) p-smad2/3 protein (p-smad2/3 protein; Group B: TGF-β1 5 ng/ml 12 h, then compound (1) 15 μg/ml 24 h): 0.82 fold | Relative expression level (fold) p-smad2/3 protein (p-smad2/3 protein; Group C: TGF-β1 5 ng/ml 12 h, then compound (1) 30 μg/ml 24 h): 1.08 fold | expression level of smad3 protein in pulmonary tissue (smad3 protein; High-dose group, compound (1) 50 mg/kg orally daily 30 days): significantly lower | expression level of smad3 protein in pulmonary tissue (smad3 protein; Low-dose group, compound (1) 10 mg/kg orally daily 30 days): significantly lower
